{"source": "patent US11299458B2", "about": "“Crystalline compounds” (OTSUKA AMERICA PHARMACEUTICAL, INC., priority 2015, dated 2022)", "assay_type_in_all_cases": "physicochemical", "key": {"[1]": {"test": "Storage stability of solid form, XRPD after storage", "description": "Six scale-up attempts are conducted to prepare Crystalline Form C by cooling in isopropanol on approximately 50-150 mg scale (Table 11) and the solids tested by XRPD. At refrigerator temperature, precipitated solids yield Form B. Seeding with Form C after cooling in the refrigerator (no solids observed) and before placing in the freezer yield XRPD pattern of Form C with B peaks. Precipitation at freezer temperature results in solids with an XRPD pattern of Form C with A peaks. A solution placed in the freezer after cooling to room temperature with a lower concentration (7 mg/mL compared to 10 mg/mL) yields Form B. By crash cooling (ambient solution placed into dry ice/isopropanol), solids generated are a mixture of Forms B and A. The last attempt on an approximate 50-mg scale generates a mixture of Forms A and C.\nAn elliptically graded multilayer mirror is used to focus Cu Kα X-rays through the specimen and onto the detector. Prior to the analysis, a silicon specimen (NIST SRM 640e) is analyzed to verify the observed position of the Si 111 peak is consistent with the NIST-certified position. A specimen of the sample is sandwiched between 3-μm-thick films and analyzed in transmission geometry. A beam-stop, short antiscatter extension, and antiscatter knife edge are used to minimize the background generated by air. Soller slits for the incident and diffracted beams are used to minimize broadening from axial divergence. The diffraction pattern is collected using a scanning position-sensitive detector (X'Celerator) located 240 mm from the specimen and Data Collector software v. 2.2b. Data acquisition parameters are: Panalytical X-Pert Pro MPD PW3040 Pro, X-ray Tube: Cu (1.54059 Å), Voltage: 45 kV, Amperage: 40 mA, Scan Range: 1.00-39.99° 2θ, Step Size: 0.017° 2θ, Collection Time: 719 s, Scan Speed: 3.3°/min., Slit: DS: ½°, SS: null, Revolution Time: 1.0 s, Mode: Transmission."}, "[2]": {"test": "Polymorph screen: crystallization, slurry, vapor stress and pH buffer experiments, XRPD result", "description": "Antisolvent Precipitation: Solutions are prepared in various solvents and filtered through a 0.2-μm nylon filter into a vial. Antisolvent is then added until precipitation is observed. The resulting solids are isolated by vacuum filtration and analyzed.\nCrash Cool (CC): Solutions are prepared in various solvents at an elevated temperature and filtered warm through a 0.2-μm nylon filter into a pre-cooled vial. The vial is placed in a (dry ice+isopropanol) cooling bath. Samples are placed into a freezer if no solids are observed to immediately precipitate. The resulting solids are isolated by vacuum filtration and analyzed.\n(§1) Fast Evaporation (FE): Solutions are prepared in various solvents and sonicated between aliquot additions to assist in dissolution. Once a mixture reaches complete dissolution, as judged by visual observation, the solution is filtered through a 0.2-μm nylon filter. The filtered solution is allowed to evaporate at ambient conditions in an uncapped vial. Solutions are evaporated to dryness unless designated as partial evaporations. The solids that formed are isolated and analyzed.\nSlow Cooling (SC): Solutions are prepared in various solvents at an elevated temperature. The solutions are filtered warm through a 0.2-μm nylon filter into a warm vial. The vial is capped and left on the hot plate, and the hot plate is turned off to allow the sample to cool slowly to ambient temperature. If no solids are present after cooling to ambient temperature, the sample is placed in a refrigerator and/or freezer for further cooling. Solids are collected by vacuum filtration and analyzed.\nas §1, with “Slow” for “Fast”, “(SE):” for “(FE):”, “sonicated” for “sonicated between aliquot additions”, “a vial covered with aluminum foil perforated with pinholes.” for “an uncapped vial.”, “form” for “formed”\n(§2) Slurry Experiments: Suspensions are prepared by adding enough solids to a given solvent so that excess solids are present. The mixture is then agitated in a sealed vial at ambient temperature or an elevated temperature. After a given period of time, the solids are isolated by vacuum filtration and analyzed.\nVapor Diffusion (VD): Solutions are prepared in various solvents and filtered through a 0.2-μm nylon filter. The filtered solution is dispensed into a 1-dram vial, which is then placed inside a 20-mL vial containing antisolvent. The 1-dram vial is left uncapped and the 20-mL vial is capped to allow vapor diffusion to occur. The resulting solids are isolated and analyzed.\nVapor Stress (VS): A solid sample is placed into a 1-dram vial. The 1-dram vial is then placed into a 20-mL vial containing solvent. The 20-mL vial is capped and left at ambient conditions for a measured time period. Samples are analyzed after removal from the stress environment.\nCrystalline Form A through Form F are prepared as follows by using Crystalline Form A obtained from Example 1 above. A variety of crystallization techniques are used, including evaporation, cooling, solvent/antisolvent precipitation, slurry, vapor stress, and vapor diffusion, as described above.\nCrystalline Forms D, E, and F—Crystalline Form A is dissolved in pH adjusted buffered media. Undissolved solid or precipitate observed is analyzed by XRPD. Some experiments are conducted at elevated temperature to increase solubility, the undissolved solids are also analyzed by XRPD.\nCrystalline Form A from Example 5 is used to make the following crystalline forms."}, "[3]": {"test": "Slurry in dichloromethane at ambient temperature, solvent mediated form conversion by XRPD", "conditions": "16 days, no seeds, hydrochloride", "description": "as §2\n558.9 mg of Crystalline Form A from Example 5 above is slurried in 5 mL dichloromethane. The preparation is stirred (300 RPM) in a sealed vial at ambient temperature for 16 days. White solids are isolated by vacuum filtration, rinsed with 1 mL of dichloromethane, and briefly dried under nitrogen. […] The XRPD pattern is collected with a PANalytical X'Pert PRO MPD diffractometer using an incident beam of Cu radiation produced using an Optix long, fine-focus source. An elliptically graded multilayer mirror is used to focus Cu Kα X-rays through the specimen and onto the detector. Prior to the analysis, a silicon specimen (NIST SRM 640e) is analyzed to verify the observed position of the Si 111 peak is consistent with the NIST-certified position. A specimen of the sample is sandwiched between 3-μm-thick films and analyzed in transmission geometry. A beam-stop, short antiscatter extension, and an antiscatter knife edge are used to minimize the background generated by air. Soller slits for the incident and diffracted beams are used to minimize broadening from axial divergence. […]"}}, "note": "“Also recorded” adds a separate entry of the source."}
{"smiles": "Cl.c1ccc2cc([C@]34CNC[C@H]3C4)ccc2c1", "note": "[Crystalline Form A, (1R,5S)-1-(naphthalen-2-yl)-3-azabicyclo[3.1.0]hexane hydrochloride]", "values": [{"measurement": "solid form by XRPD after long-term storage", "setting": "[1]; long-term storage, product of Example 5", "result": "consistent with Crystalline Form A"}, {"measurement": "XRPD Result after 22 days of ambient storage", "setting": "[1]; solids from IPA CC (70° C. to dry ice/IPA), freezer/2 d, after 22 days of ambient storage", "result": "storage: C +"}, {"measurement": "XRPD Result", "setting": "[2]; 1-propanol, CC (70° C. to dry ice/IPA), freezer/2 d", "result": "B + weak A"}, {"measurement": "XRPD Result", "setting": "[2]; DCM, SE", "result": "A + B"}, {"measurement": "XRPD Result", "setting": "[2]; EtOH, CC (70° C. to dry ice/IPA), freezer/2 d", "result": "C + weak A"}, {"measurement": "XRPD Result", "setting": "[2]; EtOH, FE", "result": "A + B"}, {"measurement": "XRPD Result", "setting": "[2]; EtOH, SC (70° C. to RT, refrigerator/2 d, freezer/8 d)", "result": "A + weak C"}, {"measurement": "XRPD Result", "setting": "[2]; HFIPA/IPE, AS precipitation", "result": "A + weak"}, {"measurement": "XRPD Result", "setting": "[2]; HFIPA, SE", "result": "A + weak B"}, {"measurement": "XRPD Result", "setting": "[2]; IPA, CC (70° C. to dry ice/IPA), freezer/2 d, about 27 mg scale, 10 mg/mL", "result": "C + possible"}, {"measurement": "XRPD Result", "setting": "[2]; TFE, SE", "result": "A + weak B"}, {"measurement": "solid form after slurry in dichloromethane", "setting": "[3]", "result": "Product is Crystalline Form A; also recorded: does not cause a solvent mediated form conversion to Crystalline Form B"}]}
